Test results taken from ChEMBL document CHEMBL1129835, “Selective cytotoxicity of certain 9-substituted ellipticines for leukemia cells in a variety of leukemia cell cultures” (1997).

Tests used:
Type in all cases: functional
Conditions in all cases: Homo sapiens
U-251 = test: The compound was evaluated for cytotoxicity against U251 CNS cancer cell line
CAKI-1 = test: The compound was evaluated for cytotoxicity against CAKI-1 renal cancer cell line
NCI-H322M = test: The compound was evaluated for cytotoxicity against NCI-H322M non-small cell lung cancer cell line
IGROV-1 = test: The compound was evaluated for cytotoxicity against IGROV1 ovarian cancer cell line
PC-3 = test: The compound was evaluated for cytotoxicity against PC-3 prostate cancer cell line
HCT-116 = test: The compound was evaluated for cytotoxicity against HCT116 colon cancer cell line
MOLT-4 = test: The compound was evaluated for cytotoxicity against MOLT-4 leukemia cell line
LOX IMVI = test: The compound was evaluated for cytotoxicity against LOX-IMVI melanoma cell line
MDA-N = test: The compound was evaluated for cytotoxicity against MDA-N breast cancer cell line

Cc1c2ccncc2c(C)c2c1[nH]c1ccc(CNCCN(C)C)cc12
GI50 (U-251): 280 nM | GI50 (CAKI-1): 260 nM | GI50 (NCI-H322M): 250 nM | GI50 (IGROV-1): 150 nM | GI50 (PC-3): 380 nM | GI50 (HCT-116): 170 nM | GI50 (MOLT-4): 100 nM | GI50 (LOX IMVI): 160 nM | GI50 (MDA-N): 280 nM
